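Test compounds were applied to cells in 96-well plates for 48 hours at 5 doses. The concentration for full growth arrest is given as TGI.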
Key:
Assay in all cases: NCI tumour cell line growth inhibition, 48 h
[1] = system: BT-549 breast
[2] = system: UACC-62 melanoma
[3] = system: SK-MEL-2 melanoma
[4] = system: HOP-62 NSCLC
[5] = system: OVCAR-3 ovarian
[6] = system: MCF7 breast
[7] = system: SK-MEL-28 melanoma
[8] = system: HCC-2998 colon
[9] = system: UACC-257 melanoma
[10] = system: T-47D breast
[11] = system: MDA-MB-435
[12] = system: IGROV1 ovarian
[13] = system: UO-31 renal
[14] = system: SW-620 colon
[15] = system: A549 NSCLC
[16] = system: COLO 205 colon
[17] = system: HCT-15 colon
[18] = system: OVCAR-8 ovarian
[19] = system: HT29 colon
[20] = system: RPMI-8226 leukemia
[21] = system: NCI/ADR-RES ovarian
[22] = system: SK-OV-3 ovarian
[23] = system: SNB-75 CNS
[24] = system: A498 renal
[25] = system: KM12 colon
[26] = system: K-562 leukemia
[27] = system: OVCAR-4 ovarian
[28] = system: MDA-N
[29] = system: NCI-H460 lung
[30] = system: MDA-MB-231 breast
[31] = system: TK-10 renal
[32] = system: 786-0 renal
[33] = system: M14 melanoma
[34] = system: HL-60(TB) leukemia
[35] = system: SF-539 CNS
[36] = system: SF-295 CNS
[37] = system: MOLT-4 leukemia
[38] = system: OVCAR-5 ovarian
[39] = system: SNB-19 CNS
[40] = system: RXF 393 renal
[41] = system: HCT-116 colon
[42] = system: ACHN renal
[43] = system: NCI-H23 lung
[44] = system: SN12C renal
[45] = system: SF-268 CNS
[46] = system: HS 578T breast
[47] = system: SK-MEL-5 melanoma
[48] = system: HOP-92 NSCLC
[49] = system: DU-145 prostate
[50] = system: NCI-H226 lung
[51] = system: U251 CNS
[52] = system: EKVX NSCLC
[53] = system: LOX IMVI melanoma
[54] = system: CAKI-1 renal
[55] = system: SR leukemia
[56] = system: PC-3 prostate
[57] = system: NCI-H522 lung
[58] = system: CCRF-CEM leukemia

COc1ccc(C2SCC(=O)N2NC(=O)c2ccc(NC(C)=O)cc2)c(OC)c1 (configuration not stated)
TGI [1]: > 100 µM | TGI [2]: > 100 µM | TGI [3]: > 100 µM | TGI [4]: > 100 µM | TGI [5]: > 100 µM | TGI [6]: > 100 µM | TGI [7]: > 100 µM | TGI [8]: > 100 µM | TGI [9]: > 100 µM | TGI [10]: > 100 µM | TGI [11]: > 100 µM | TGI [12]: > 100 µM | TGI [13]: > 100 µM | TGI [14]: > 100 µM | TGI [15]: > 100 µM | TGI [16]: > 100 µM | TGI [17]: > 100 µM | TGI [18]: > 100 µM | TGI [19]: > 100 µM | TGI [20]: > 100 µM | TGI [21]: > 100 µM | TGI [22]: > 100 µM | TGI [23]: > 100 µM | TGI [24]: > 100 µM | TGI [25]: > 100 µM | TGI [26]: > 100 µM | TGI [27]: > 100 µM | TGI [28]: > 100 µM | TGI [29]: > 100 µM | TGI [30]: > 100 µM | TGI [31]: > 100 µM | TGI [32]: > 100 µM | TGI [33]: > 100 µM | TGI [34]: > 100 µM | TGI [35]: > 100 µM | TGI [36]: > 100 µM | TGI [37]: > 100 µM | TGI [38]: > 100 µM | TGI [39]: > 100 µM | TGI [40]: > 100 µM | TGI [41]: > 100 µM | TGI [42]: > 100 µM | TGI [43]: > 100 µM | TGI [44]: > 100 µM | TGI [45]: > 100 µM | TGI [46]: > 100 µM | TGI [47]: > 100 µM | TGI [48]: > 100 µM | TGI [49]: > 100 µM | TGI [50]: > 100 µM | TGI [51]: > 100 µM | TGI [52]: > 100 µM

CC(=O)O[C@H]1CC[C@@]2(C)C(=CC[C@@H]3[C@@H]2CC[C@]2(C)c4c(C)nn(-c5ccccc5)c4C[C@@H]32)C1
TGI [1]: 23.8 µM | TGI [2]: 39.3 µM | TGI [53]: 27.6 µM | TGI [4]: 35.2 µM | TGI [5]: > 100 µM | TGI [6]: > 100 µM | TGI [7]: > 100 µM | TGI [54]: 47.2 µM | TGI [8]: 30.6 µM | TGI [9]: > 100 µM | TGI [10]: > 100 µM | TGI [11]: > 100 µM | TGI [12]: > 100 µM | TGI [13]: 47.3 µM | TGI [55]: 65 µM | TGI [14]: > 100 µM | TGI [15]: > 100 µM | TGI [16]: 36.2 µM | TGI [17]: > 100 µM | TGI [18]: > 100 µM | TGI [19]: > 100 µM | TGI [21]: > 100 µM | TGI [22]: 44.5 µM | TGI [23]: 49.9 µM | TGI [24]: 52.8 µM | TGI [25]: 86.7 µM | TGI [26]: > 100 µM | TGI [27]: > 100 µM | TGI [28]: > 100 µM | TGI [56]: > 100 µM | TGI [29]: 47.9 µM | TGI [30]: 50.6 µM | TGI [31]: 51 µM | TGI [32]: 35.9 µM | TGI [57]: 45.3 µM | TGI [33]: > 100 µM | TGI [34]: 77 µM | TGI [36]: 12.9 µM | TGI [37]: > 100 µM | TGI [38]: 68.1 µM | TGI [39]: > 100 µM | TGI [40]: 19.3 µM | TGI [41]: > 100 µM | TGI [42]: 61.1 µM | TGI [43]: 31.3 µM | TGI [44]: > 100 µM | TGI [45]: > 100 µM | TGI [46]: 67.2 µM | TGI [47]: > 100 µM | TGI [48]: 70.8 µM | TGI [49]: 37.2 µM | TGI [50]: 75.3 µM | TGI [58]: 56.9 µM | TGI [51]: > 100 µM | TGI [52]: 53.7 µM

— PubChem BioAssay (NCI)
